The results in this text go back to patent publication US7718645B2, “Substituted bicyclolactam compounds” (Pfizer Inc., priority 2007, dated 2010).

Molecules are shown by their SMILES. Read-outs that look alike come from different tables or passages of the source.

The target in this test is T1, Human full-length diacylglycerol:acylCoA acyltransferase 1 (DGAT-1) (Homo sapiens, UniProt O75907).
T1 construct: Human full-length diacylglycerol:acylCoA acyltransferase 1 (DGAT-1) was expressed in Sf9 insect cells; made in house; host or cells: Sf9 insect cells (baculovirus)
T1 sequence (O75907 1-488): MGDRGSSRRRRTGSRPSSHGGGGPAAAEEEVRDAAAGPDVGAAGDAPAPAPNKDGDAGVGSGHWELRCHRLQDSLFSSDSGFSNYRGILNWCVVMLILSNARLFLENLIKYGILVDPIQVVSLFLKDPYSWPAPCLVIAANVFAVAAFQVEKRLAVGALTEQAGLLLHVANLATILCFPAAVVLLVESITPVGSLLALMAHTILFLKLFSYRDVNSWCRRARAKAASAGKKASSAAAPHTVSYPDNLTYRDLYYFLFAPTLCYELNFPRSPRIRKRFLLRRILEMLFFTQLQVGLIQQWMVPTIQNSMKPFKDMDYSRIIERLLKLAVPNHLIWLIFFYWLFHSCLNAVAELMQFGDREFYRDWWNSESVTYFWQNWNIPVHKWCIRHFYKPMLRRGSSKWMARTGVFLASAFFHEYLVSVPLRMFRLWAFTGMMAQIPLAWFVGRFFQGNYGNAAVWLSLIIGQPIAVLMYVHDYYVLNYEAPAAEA
The test can be described thus: In vitro assay for DGAT-1 inhibition ([14C]decanoylCoA, Sf9 membrane fraction). The format is biochemical. The protocol: Human full-length diacylglycerol:acylCoA acyltransferase 1 (DGAT-1) was expressed in Sf9 insect cells which are then lysed and a crude membrane fraction (105,000×g pellet) was prepared.
The cells were cultured as follows. Sf9 cells (20 L) were infected with 4 mL of DGAT1 Baculovirus Infected Insect Cells (BIIC) for 72 hours in a Wave Bioreactor System 20/50P (Wave Biotec/GE Healthcare).
Crude DGAT-1 microsomes were prepared as follows. Cell pellets were washed once with ice-cold Dulbecco's phosphate-buffered saline. Cells were collected in tabletop centrifuge (Beckman GS-6KR), 15 minutes, 2000×g, 4° C. Twenty (20) mL of ice-cold Microsome Buffer (MB) was added per 5 g of cell pellet. The suspension was passed through a microfluidizer 3 times (18K psi). The lysate was transferred to centrifuge tubes and centrifuged for 20 minutes at 5000×g (Beckman-Coulter, Inc. Allegra® 64R High-Speed Refrigerated Benchtop Centrifuge, F0650 rotor) at 4° C. The supernatant was transferred to Ultracentrifuge tubes and centrifuged at […] for 1 hr in a Beckman Ti-45 rotor, 4° C. The supernatant fluid was discarded. The pellet was resuspended in 70 mL of MB by sonication. The microsome concentration was determined using Bio-Rad Protein DC Protein Assay. The microsomes were filter sterilized with a 0.22 μm filter. The samples were portioned, flash frozen and stored at −80° C.
Inhibitors in DMSO were pre-incubated with membranes before initiating the DGAT-1 reaction by the addition of decanoylCoA. […] The inhibitors were present at a range of eight concentrations to generate an apparent IC50 for each compound. […] Specifically, the eight concentrations used were 10 μM, 3 μM, 1 μM, 300 nM, 100 nM, 30 nM, 10 nM and 3 nM.
The reactions were allowed to proceed for 1.5 h at room temperature and then terminated by the addition of 10 μl of HCl (0.5 M). Reaction mixtures were neutralized by the addition of 15 μl of tris(hydroxy-methyl)aminomethane (1M, pH 8.0) and then mixed by trituration with 37.5 μl of Microscint™-E (Perkin Elmer).
Where this DGAT-1 inhibition assay was performed on a compound more than once, an inhibition range is also provided for that compound.

The mark [1] stands for this setting: apparent IC50, eight inhibitor concentrations 10 μM to 3 nM, read-out: IC50.
The mark [2] stands for this setting: inhibition range where the assay was performed on a compound more than once, read-out: IC50 range.

In the case of `C[C@@H]1CN(c2ccc(C3CCC(CC(N)=O)CC3)c(F)c2)C(=O)c2c(N)ncnc2O1` (stereo partly drawn) [Example 28, (R)-2-(4-(4-(4-amino-8-methyl-5-oxo-7,8-dihydropyrimido[5,4-f][1,4]oxazepin-6(5H)-yl)-2-fluorophenyl)cyclohexyl)acetamide], the IC50 runs as follows: under setting [1], 11.3 nM; under setting [2], 7.3 to 19.9 nM.

On to `C[C@@H]1CN(c2ccc([C@H]3CC[C@H](CC#N)CC3)cc2)C(=O)c2c(N)ncnc2O1` [Example 47, (Trans-4-{4-[(8R)-4-amino-8-methyl-5-oxo-7,8-dihydropyrimido[5,4-f][1,4]oxazepin-6(5H)-yl]phenyl}cyclohexyl)acetonitrile], for which the IC50 is, setting by setting: under setting [1], 38.4 nM; under setting [2], 30.1 to 48.1 nM.

With `C[C@@H]1CN(c2ccc(C3CCC(CC#N)CC3)c(F)c2)C(=O)c2c(N)ncnc2O1` (stereo partly drawn) [Example 48, (R)-2-(4-(4-(4-amino-8-methyl-5-oxo-7,8-dihydropyrimido[5,4-f][1,4]oxazepin-6(5H)-yl)-2-fluorophenyl)cyclohexyl)acetonitrile], the concentration for half-maximal inhibition (IC50) is 12.9 nM under setting [1] and 4.5 to 22.2 nM under setting [2].

As to `Nc1ncnc2c1C(=O)N(c1ccc(C3CCC(C(=O)O)CC3)cc1)CCO2` (stereo not drawn) [Example 49, 4-[4-(4-Amino-5-oxo-7,8-dihydro-5H-9-oxa-1,3,6-triaza-benzocyclohepten-6-yl)-phenyl]-cyclohexanecarboxylic Acid], the IC50 under setting [1] came to 7.8 nM and the IC50 under setting [2] is 5.8 to 10.5 nM.

`COC(=O)C1CCC(c2ccc(N3CCOc4ncnc(N)c4C3=O)cc2)CC1` (stereo not drawn) [Example 50, 4-[4-(4-Amino-5-oxo-7,8-dihydro-5H-9-oxa-1,3,6-triaza-benzocyclohepten-6-yl)-phenyl]-cyclohexanecarboxylic Acid Methyl Ester]: the IC50 reads like this: under setting [1], 47.3 nM; under setting [2], 45.2 to 49.5 nM.

With `COC(=O)Cc1ccc(Oc2ccc(N3CCOc4ncnc(N)c4C3=O)cc2)cc1` [Example 54, Methyl {4-[4-(4-amino-5-oxo-7,8-dihydropyrimido[5,4-f][1,4]oxazepin-6(5H)-yl)phenoxy]phenyl}acetate], the 50% inhibitory concentration (IC50) under setting [1] was determined as 254 nM.

`COC(=O)C1C2C1[C@H]1C[C@@H]2C[C@@H]1c1ccc(N2CCOc3ncnc(N)c3C2=O)cc1` (stereo partly drawn) [Example 56, (1R,5R,6S)-6-[4-(4-Amino-5-oxo-7,8-dihydro-5H-9-oxa-1,3,6-triaza-benzocyclohepten-6-yl)-phenyl]-tricyclo[3.2.1.0*2,4*]octane-3-carboxylic Acid Methyl Ester]: the IC50 under setting [1] amounted to 78.3 nM.
